Test results published in article PMC11340618 (iScience, 2024).
Converted amounts (≈) assume the structure as drawn. “And” between values parts separate entries of the source, which are not always exact repeats. Identical values can stand only once. Like-named read-outs stand apart in the source and are kept apart here.

Columns and labels:
GSK3β = target: T1, GSK3β (Homo sapiens, UniProt P49841); test: in vitro inhibition of GSK3β, ADP-Glo Kinase assay (SignalChem); assay type: biochemical; conditions: normalized to negative control
T1 construct: purchased SignalChem (Richmond, BC, Canada), contract assay service
Method: Samples of three GSK3 inhibitors (P-4423632, P-0717632, P-3817632) were sent to SignalChem (Richmond, BC, Canada) where a compound selectivity assay was performed and the IC50 values of the inhibitors were determined.
Figure S3: in vitro inhibition of GSK3β by selected inhibitors, related to Star Methods: Determination of IC50 of GSK3 inhibitors. GSK3β activity was measured using the ADP-GloTM Kinase assay and normalized to the negative control (100% kinase activity). Curve was fit using non-linear regression analysis calculated with GraphPad Prism software.
(also on this page, place not known: % Inhibition GSK3β % Inhibition GSK3β % Inhibition GSK3β IC50)

[1] = tested on: intracellular M. tuberculosis H37Rv (WT); test: microbe, parasite or virus in culture; assay type: cell-based; conditions: Mycobacterium tuberculosis, 72 h
[2] = tested on: intracellular M. tuberculosis ΔptpA; assay type: cell-based, Mycobacterium tuberculosis
[3] = tested on: Mycobacterium tuberculosis H37Rv in THP-1; test: Minimal inhibitory concentrations of P-4423632 against Mtb H37Rv in THP-1 (Table S3); assay type: cell-based
Text: Table S3. Minimal inhibitory concentrations of P-4423632 against Mycobacterium tuberculosis H37Rv in cell lines and in broth, and inhibitory concentrations (toxicity level) to THP-1 cells. Related to Figure 2.

[4] = tested on: Mycobacterium tuberculosis H37Rv in hMDM; test: microbe, parasite or virus in culture; assay type: cell-based
[5] = Cytotoxicity analysis (MTT assay); assay type: cell-based; conditions: human, differentiated THP-1 cells, toxicity level to THP-1 cells
Method: The MTT assay was performed as described previously.[19] […] At the 69.5-hour time point, 25 μL of 3-(4,5-dimethylthiazol-2-yl)-2,5-diphenyltetrazolium bromide (MTT) solution were added to each well. […] The absorbance of each well was read at 570 nm and these values were used to calculate the percentage of viable cells.

Acinetobacter baumannii = test: Disk assay, in vitro activity; assay type: cell-based
Bacillus subtilis = test: Disk assay, in vitro activity; assay type: cell-based
Escherichia coli = test: Disk assay, in vitro activity; assay type: cell-based
Enterococcus faecalis = test: Disk assay, in vitro activity; assay type: cell-based; conditions: up to 25 μg of P-4423632
Moraxella catarrhalis = test: Disk assay, in vitro activity; assay type: cell-based
Pseudomonas aeruginosa = test: Disk assay, in vitro activity; assay type: cell-based
Staphylococcus aureus = test: Disk assay, in vitro activity; assay type: cell-based
MRSA = test: Disk assay, in vitro activity; assay type: cell-based; conditions: up to 25 μg of P-4423632
[6] = tested on: Staphylococcus epidermidis; test: Disk assay, in vitro activity; assay type: cell-based
Salmonella typhimurium = test: Disk assay, in vitro activity; assay type: cell-based
Mycobacterium marinum = test: Disk assay, in vitro activity; assay type: cell-based; conditions: up to 25 μg of P-4423632
[7] = tested on: Mycobacterium intracellulare; test: Disk assay, in vitro activity; assay type: cell-based
Mycobacterium bovis BCG = assay type: cell-based
Mycobacterium smegmatis = assay type: cell-based; conditions: up to 100 μg of P-4423632
Mycobacterium abscessus = assay type: cell-based; conditions: up to 100 μg of P-4423632
[8] = tested on: Mycobacterium tuberculosis H37Rv auxotroph, mc2 6206; assay type: cell-based
M. avium avium = test: Disk assay, in vitro activity; assay type: cell-based
[9] = tested on: panel of bacteria, including Mtb; assay type: cell-based
[10] = tested on: intracellular Mtb in GSK3α KO / GSK3β KO THP-1 cells; assay type: cell-based, Mycobacterium tuberculosis; conditions: 10 μM P-4423632, 72 h
THP-1 cells = test: Annexin V FITC apoptosis assay, flow cytometry; assay type: cell-based, human
[11] = tested on: Campylobacter jejuni in Caco-2 cells; test: Caco-2 infection with C. jejuni, CFU; assay type: cell-based; conditions: two-fold serial dilutions, 24h
Method: Isolated colonies from overnight culture grown on Muller -Hinton (MH) plates in microaerophilic conditions were inoculated into liquid MH media and grown overnight. Bacteria were pelleted by centrifugation and resuspended in DMEM media. The bacteria were then added at an MOI of 100-400 to Caco-2 cells in 24-well plates at 10^5 cells per well. After 2 h of incubation, infected cells were washed with fresh DMEM and incubated an additional 2 h with 100-200 μg/ml gentamycin followed by the addition of test compounds and incubation for 24 h. After incubation, cells were washed with fresh DMEM and lysed by osmotic shock with sterile […] and passed through a 27G needle with a syringe. The lysate was serially diluted and plated in MH agar using the pouring plate method. CFU were then counted after a 24 - 48 h incubation. To assess cell survival, a duplicate of the previous conditions was used to undergo MTT assay or cell count with the CX5 using DAPI staining. […]
intracellular bacteria. Related to Star Methods describing C. Jejuni and S. enterica infections. […] Percent inhibition was calculated by subtracting CFU values as a percentage of the untreated DMSO control (plotted at 0.1 µM) from 100%. […] Curve was fit using non-linear regression analysis of log (inhibitor) vs. response (variable slope) calculated with GraphPad Prism 10. […]

[12] = tested on: Salmonella enterica serovar Typhimurium in THP-1 cells; test: THP-1 infection with S. typhimurium, high content screening; assay type: cell-based; conditions: MOI 10:1, 24h
[13] = tested on: GSK3α Y279 / GSK3β Y216 phosphorylation; test: Western blot of Y279 - Y216 phosphorylation status of GSK3α and GSK3β in THP-1 cells; assay type: cell-based, human
[14] = tested on: intracellular Mtb H37Rv in THP-1 cells; test: Dose dependent activity against intracellular Mtb, high content analysis of fluorescent Mtb (Fig 3E); assay type: cell-based, Mycobacterium tuberculosis
[15] = tested on: Mycobacterium tuberculosis H37Rv in broth; test: In-broth activity analysis (resazurin assay)
Mtb infection = tested on: Mtb infection; parameters: method as in PMID 35095838; conditions: GSK3α/β inhibition ref 56; cited from earlier work

T1 sequence (P49841 whole entry): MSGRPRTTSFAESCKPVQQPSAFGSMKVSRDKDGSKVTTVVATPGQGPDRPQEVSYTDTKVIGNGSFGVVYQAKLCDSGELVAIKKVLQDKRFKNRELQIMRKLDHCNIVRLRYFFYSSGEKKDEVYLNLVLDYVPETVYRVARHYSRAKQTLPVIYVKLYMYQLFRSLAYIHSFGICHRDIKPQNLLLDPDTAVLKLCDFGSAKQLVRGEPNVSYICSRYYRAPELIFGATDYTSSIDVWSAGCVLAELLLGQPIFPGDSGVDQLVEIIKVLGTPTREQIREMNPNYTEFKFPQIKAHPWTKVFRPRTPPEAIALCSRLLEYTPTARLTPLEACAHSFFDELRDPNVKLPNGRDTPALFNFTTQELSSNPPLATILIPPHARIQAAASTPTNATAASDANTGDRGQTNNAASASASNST

O=C(NCc1ccccn1)Nc1cc(N2CC(CCc3ccccc3)CC2=O)ccn1 (stereo not shown) [P-4423632]
IC50 (GSK3β): 748 nM | MIC25 [1]: 2.9 µM (≈ 1.2 µg/mL) | MIC50 [1]: 6.4 µM (≈ 2.66 µg/mL) | MIC25 ΔptpA [2]: > 25 µM | MIC50 ΔptpA [2]: > 25 µM | IC50 ([3]; H37RV, THP-1, read-out: (M)IC50): 2.31e-06 M | IC90 ([3]; Mtb H37Rv in THP-1): 16 µM | IC50 ([4]; Mycobacterium tuberculosis, Macrophage, Mtb H37Rv in hMDM): 4.17 µM | effect on Mtb intracellular replication in hMDMs ([4]; hMDMs combined from two donors, 72 h): restricted Mtb intracellular replication in a dose dependent manner | IC50 at 72 h ([5]; read-out: (M)IC50, cytotoxicity in THP1): 7.78e-05 M | IC90 at 72 h ([5]; read-out: (M)IC90, cytotoxicity in THP1): 0.000115 M | Disk assay susceptibility (Acinetobacter baumannii; up to 25 μg of P-4423632): R | Disk assay susceptibility (Bacillus subtilis; up to 25 μg of P-4423632): R | Disk assay susceptibility (Escherichia coli; up to 25 μg of P-4423632): R | Disk assay susceptibility (Enterococcus faecalis): R | Disk assay susceptibility (Moraxella catarrhalis; up to 25 μg of P-4423632): R | Disk assay susceptibility (Pseudomonas aeruginosa; up to 25 μg of P-4423632): R | Disk assay susceptibility (Staphylococcus aureus; up to 25 μg of P-4423632): R | Disk assay susceptibility (MRSA): R | Disk assay susceptibility ([6]; up to 25 μg of P-4423632): R | Disk assay susceptibility (Salmonella typhimurium; up to 25 μg of P-4423632): R | Disk assay susceptibility (Mycobacterium marinum): R | Disk assay susceptibility ([7]; up to 25 μg of P-4423632): R | Disk assay susceptibility (Mycobacterium bovis BCG; up to 25 μg of P-4423632): R | Disk assay susceptibility (Mycobacterium smegmatis): R | Disk assay susceptibility (Mycobacterium abscessus): R | Disk assay susceptibility [8]: R | Disk assay susceptibility (M. avium avium; up to 25 μg of P-4423632): R | activity in disk-diffusion antibiotics susceptibility assay [9]: inactive | Reduction % of intracellular Mtb survival vs untreated counterpart ([10]; GSK3α KO THP-1 cells): over 75% | Reduction % of intracellular Mtb survival vs untreated counterpart ([10]; GSK3β KO THP-1 cells): ~50% | Apoptotic cells (THP-1 cells): 16.31% and 30.57% and 31.59% | Dead cells (THP-1 cells): 9.32% and 6.98% | Live cells (THP-1 cells): 67.62% and 58.79% and 58.44% | effect on apoptosis of infected THP-1 cells (THP-1 cells): upregulation of apoptosis | activity against intracellular C. jejuni [11]: active in a dose-dependent manner | activity against intracellular S. Typhimurium [12]: active in a dose-dependent manner | phosphorylation of GSK3α Y279 and GSK3β Y216 [13]: reduced phosphorylation of both Y279 and Y216 | dose-dependent activity against intracellular Mtb [14]: dose-dependent activity | effect on host cell viability (hMDM): no effect on host cell viability | in-broth MIC50 compared to intracellular activity ([15]; in broth vs intracellular): over 10 fold | IC50 ([15]; read-out: (M)IC50, Mtb H37Rv in broth): 3.88e-05 M | IC90 ([15]; read-out: (M)IC90, Mtb H37Rv in broth): 4.33e-05 M

CSc1ccc(-n2cnc3ccc(-c4nnc(CCc5cccc(C#N)c5)o4)cc32)cc1 [P-0717632]
MIC50 [1]: 0.4 µM (≈ 0.175 µg/mL) | MIC25 ΔptpA [2]: > 25 µM | MIC50 ΔptpA [2]: > 25 µM

CSc1ccc(-n2cnc3ccc(-c4nnc(CCc5cccc(C(F)(F)F)c5)o4)cc32)cc1 [P-3817632]
IC50 (GSK3β): 280 nM | MIC25 [1]: 0.6 µM (≈ 0.288 µg/mL) | MIC50 [1]: 2 µM (≈ 0.961 µg/mL) | MIC25 ΔptpA [2]: 13.8 µM (≈ 6.63 µg/mL) | MIC50 ΔptpA [2]: > 25 µM

Cc1nnc(-c2ccc3occ(-c4ccc([S+](C)[O-])c(OC(F)(F)F)c4)c3c2)o1 (stereo not shown) [P-5782442]
MIC25 [1]: 1.6 µM (≈ 0.676 µg/mL) | MIC50 [1]: > 25 µM | MIC25 ΔptpA [2]: > 25 µM | MIC50 ΔptpA [2]: > 25 µM

Cn1cc(C2=C(c3ccc(Cl)cc3Cl)C(=O)NC2=O)c2ccccc21 [SB216763]
effect on Mtb infection (Mtb infection): increased Mtb infection

Gentamycin [reference compound]
Control (mm), disk assay clearing (Acinetobacter baumannii; Gen 10 μg): 20 mm | Control (mm), disk assay clearing (Bacillus subtilis; Gen 10 μg): 24 mm | Control (mm), disk assay clearing (Escherichia coli; Gen 10 μg): 18 mm | Control (mm), disk assay clearing (Moraxella catarrhalis; Gen 10 μg): 30 mm | Control (mm), disk assay clearing (Pseudomonas aeruginosa; Gen 10 μg): 21 mm | Control (mm), disk assay clearing (Staphylococcus aureus; Gen 10 μg): 25 mm | Control (mm), disk assay clearing ([6]; Gen 10 μg): 26 mm | Control (mm), disk assay clearing (Salmonella typhimurium; Gen 10 μg): 20 mm | Control (mm), disk assay clearing ([7]; Gen 12.5 μg): 20 mm | Control (mm), disk assay clearing (Mycobacterium bovis BCG; Gen 10 μg): 30 mm | Control (mm), disk assay clearing (M. avium avium; Gen 12.5 μg): 21 mm
